Test results as given in patent US20120041185A1, “dTDP-BETA-D-FUCOFURANOSE, ITS PREPARATION METHOD AND USE” (TIANJIN BIOCHIP TECHNOLOGY CORPORATION, priority 2007, published 2012).

Experiments:
[1] = target: T1, Fcf2 (recombinant dTDP-D-Glcfucofuranose mutase) (Escherichia coli, UniProt Q6E7F1); experiment: Divalent cation requirements of Fcf2 (effects of cations on enzyme activity); format: biochemical, E. coli O52; details: for Transformation rate (%): in the presence of 5 mM divalent ion, 9.5 without ion
T1 construct: The entire ORF encodes a protein composed of 377 amino acids; His6 (N); made in house; host or cells: E. coli BL21
T1 sequence (Q6E7F1 whole entry): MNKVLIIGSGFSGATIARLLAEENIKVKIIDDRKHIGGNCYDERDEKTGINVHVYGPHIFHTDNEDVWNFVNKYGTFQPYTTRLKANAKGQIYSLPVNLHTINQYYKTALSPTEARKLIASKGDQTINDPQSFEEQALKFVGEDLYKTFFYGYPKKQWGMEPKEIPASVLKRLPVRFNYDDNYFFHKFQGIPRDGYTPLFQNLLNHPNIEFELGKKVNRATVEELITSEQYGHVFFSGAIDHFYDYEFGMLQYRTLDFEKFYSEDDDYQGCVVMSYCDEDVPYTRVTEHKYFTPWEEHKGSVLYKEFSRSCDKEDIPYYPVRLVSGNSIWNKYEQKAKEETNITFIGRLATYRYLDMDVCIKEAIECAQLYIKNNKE
Protocol: 25 μl reactions in 0.5 ml centrifugal tube contain 2 mM dTDP-D-fucose, 50 mM Tris-HCl buffer (pH 7.4) 5 mM divalent ion chloride and 3.9 μM recombinant dTDP-D-Glcfucofuranose mutase protein purified in example 2. The reactions are proceeded at certain temperature for 3 hours. Then add chloroform of equal volume to extract protein. The aqueous phase is detected by Beckman Coulter P/ACE MDQ capillary electrophoresis.

[2] = test system: Fcf1 (recombinant dTDP-D-GIcO reductase); experiment: Divalent cation requirements of Fcf1 (effects of cations on enzyme activity); format: biochemical, E. coli O52; details: for Transformation rate (%): in the presence of 5 mM divalent ion chloride, 100 without ion; for influence on conversion ratio / inhibition to enzyme activity: 5 mM divalent ion chloride
Protocol: 20 μl reactions in 0.5 ml centrifugal tube contain 2 mM dTDP-D-Glco, 3 mM NADPH, 50 mM Tris-HCl buffer (pH7.4), 5 mM divalent ion chloride and 0.25 μM recombinant dTDP-D-GIcO reductase protein purified in example 2. The reactions are proceeded at certain temperatures for 2 hours. Then add chloroform of equal volume to extract protein. The aqueous phase is detected by Beckman Coulter P/ACE MDQ capillary electrophoresis.

Compound | Transformation rate (%) [1] [%] | Transformation rate (%) [2] [%] | inhibition to enzyme activity ([1]; 5 mM divalent ion) | influence on conversion ratio / inhibition to enzyme activity [2]
[Ca+2].[Cl-].[Cl-] [Ca^2+, CaCl2] | 9.6 | 98.1 |  | 
[Cl-].[Cl-].[Co+2] [Co^2+, CoCl2] | 8.8 | 89.2 |  | 
[Cl][Cu][Cl] [Cu^2+, CuCl2] | 0 | 11.8 | obvious inhibition | highest inhibition
[Cl][Fe][Cl] [Fe^2+, FeCl2] | 9.1 | 90.5 |  | 
[Cl-].[Cl-].[Mg+2] [Mg^2+, MgCl2] | 9.7 | 100 |  | no influence
[Cl][Mn][Cl] [Mn^2+, MnCl2] | 5.4 | 100 |  | no influence
